Measurements: patent publication US20140135359A1, “METHODS OF DESIGNING, PREPARING, AND USING NOVEL PROTONOPHORES” (priority 2012, published 2014)
Like-named read-outs stand apart in the source and are kept apart here.

Key:
[1] = tested on: glucose-6-phosphatase (G6Pase) activity in H4IIE hepatocytes; experiment: Glucose-6-phosphatase activity in H4IIE hepatocytes; type: cell-based, murine; conditions: 1 μM, 16 h
Procedure: 2.4 Glucose-6-phosphatase activity in H4IIE hepatocytes: H4IIE murine hepatocytes (American Type Culture Collection) were cultured to confluence in 12-well plates in DMEM supplemented with 10% FBS and antibiotics. […] Effects of test compounds on cellular viability were assessed by measuring the release of lactate dehydrogenase (LDH) into the culture medium at the end of a 16 h treatment using a commercial kit (Cytotoxicity Detection Kit; Roche Diagnostics; Laval, QC) as per the manufacturer's instructions; LDH release was expressed as % of total (medium+lysate) LDH content for each well. Cells were also routinely inspected for abnormal morphology by phase-contrast microscopy at the conclusion of the treatment period. Following treatment, cells were washed in HEPES-buffered saline (10 mM HEPES, pH 7.4, 150 mM NaCl) at 37° C. Glucose-6-phosphatase (G6Pase) activity was assessed by measuring the rate of glucose formation in the presence of a non-limiting amount of glucose-6-phosphate (G6P), as done by others [39B, 40B]. Glucose production was measured with a commercial glucose assay kit (AutoKit Glucose; Wako Diagnostics; Richmond, Va.). Two hundred μl of AutoKit Glucose buffer solution diluted 1:4 in water were added to each well. Cells were then lysed by the addition of 50 μl of 0.05% Triton X-100 in similarly diluted AutoKit Glucose buffer solution. […] At 37° C., after which time 500 μl of AutoKit Glucose color reagent were added and incubation was continued for exactly 5 min. Samples were then rapidly transferred to microcentrifuge tubes. Fifty μl were removed for assay of total protein content in order to account for effects of test compounds on cellular viability or proliferation [41B]. A commercial protein assay kit based on the Bradford method was used (Protein Assay; Bio-Rad Laboratories; Hercules, Calif.). […] The remaining volume was centrifuged at 3000×g for 5 min. Absorbance of the supernatant was measured at 505 nm at ambient temperature and glucose concentration was calculated from a standard curve performed in parallel. Control wells without exogenous G6P were included on each plate for each treatment condition and activity measured from these wells was subtracted from activity measured in the presence of exogenous G6P. G6Pase activity calculated in this way was then expressed normalized to protein content on a well-by-well basis. Two independent experiments in cells of different passages were performed for each of the selected test compounds, with four to six replicates per condition per experiment.
Protocol for assay of glucose-6-phosphatase activity in H4IIE or other hepatocytes: H4IIE murine hepatocytes (American Type Culture Collection) may be cultured to confluence in 12-well plates in Dulbecco's modified Eagle's medium (DMEM) supplemented with 10% fetal bovine serum (FBS), and antibiotics. […] Effects of test compounds on cellular viability may be assessed by measuring the release of lactate dehydrogenase (LDH) into the culture medium at the end of a 16 hour treatment using a commercial kit (e.g., Cytotoxicity Detection Kit; Roche Diagnostics; Laval, QC) as per the manufacturer's instructions; LDH release may be expressed as % of total (i.e., medium+lysate) LDH content for each well. Cells may also be routinely inspected for abnormal morphology by phase-contrast microscopy at the conclusion of the treatment period. Following treatment, cells may be washed in HEPES-buffered saline (10 mM HEPES, pH 7.4, 150 mM NaCl) at 37° C. Glucose-6-phosphatase (G6Pase) activity may be assessed by measuring the rate of glucose formation in the presence of a non-limiting amount of glucose-6-phosphate (G6P). Glucose production may be measured with a commercial glucose assay kit (e.g., AutoKit Glucose; Wako Diagnostics; Richmond, Va.). Two hundred μl of AutoKit Glucose buffer solution diluted 1:4 in water may be added to each well.

[2] = tested on: isolated rat liver mitochondria; experiment: Uncoupling activity: increase in basal (state 4) oxygen consumption by oxygraphy; type: biochemical
[3] = tested on: isolated rat liver mitochondria; experiment: Residual functional capacity / inhibitory effect on ADP-stimulated (state 3) oxygen consumption; type: biochemical; conditions: for inhibition of ADP-stimulated oxygen consumption: screening at 100 μM
[4] = tested on: differentiated C2C12 skeletal muscle cells; experiment: 3H-deoxyglucose uptake in C2C12 myotubes; type: cell-based, murine; conditions: 100 μM, 18 h
Procedure: 2.3 ^3H-deoxyglucose uptake in C2C12 myotubes: Cell culture and the ^3H-deoxyglucose uptake assay were performed as previously described [34B, 35B, 37B]. Briefly, C2C12 murine skeletal myoblasts (American Type Culture Collection; Manassas, Va.) were cultured under standard conditions in 12-well plates. Cells were proliferated to 80% confluence in high-glucose Dulbecco's modified Eagle's medium (DMEM; Wisent; St-Bruno, QC) supplemented with 10% fetal bovine serum (FBS; Wisent), 10% horse serum (HS), and antibiotics. Differentiation into multinucleated myotubes was then promoted with DMEM supplemented with 2% HS and antibiotics. All uptake assays were performed on 7-day differentiated cells, and treatments were timed accordingly. […] DMSO concentration was fixed at 0.1% for all conditions. Cells were routinely inspected for abnormal morphology by phase-contrast microscopy at the conclusion of the treatment period. […] Cells were then washed twice in glucose-free KPB at 37° C. before incubation for exactly 10 min at 37° C. in glucose-free KPB containing 0.5 μCi/ml 2-deoxy-D-[1-^3H]glucose (Amersham Biosciences; Buckinghamshire, UK). Cells were then placed on ice and immediately washed three times with ice-cold KPB. Cells were inspected for monolayer detachment and lysed in 0.1 N NaOH with scraping. […] Three independent experiments of 18 h treatment duration were performed for each of the selected test compounds, with three replicates per condition per experiment. Vehicle-control and 50 μM 2,4-dinitrophenol conditions were included on every plate. Some compounds were also tested at 50 μM under the following conditions: a 15 h treatment with vehicle only followed by a 3 h treatment with the test compound; a 15 h treatment with the test compound followed by a 3 h repeat treatment.
Protocol for ^3H-deoxyglucose uptake assay in C2C12 or other skeletal muscle cells; C2C12 murine skeletal myoblasts (American Type Culture Collection; Manassas, Va.) may be cultured under standard conditions in 12-well plates. Cells may be proliferated to 80% confluence in high-glucose Dulbecco's modified Eagle's medium (DMEM) supplemented with 10% fetal bovine serum (FBS), 10% horse serum (HS), and antibiotics. Differentiation into multinucleated myotubes may be then promoted with DMEM supplemented with 2% HS and antibiotics. All uptake assays may be performed on 7-day differentiated cells, and treatment onset may be timed accordingly. Cells may be treated with reference substances (such as metformin (100 or 400 μM), phenformin (100 μM), or 2,4-dinitrophenol 10-100 μM), compounds described herein, or vehicle (DMSO) in complete differentiation medium. DMSO concentration may be fixed at 0.1% for all conditions. Cells may be routinely inspected for abnormal morphology by phase-contrast microscopy at the conclusion of the treatment period. […] Cells may be then washed twice in glucose-free KPB at 37° C. before incubation for exactly 10 min at 37° C. in glucose-free KPB containing 0.5 μCi/ml 2-deoxy-D-[1-3H]glucose (Amersham Biosciences; Buckinghamshire, UK). Cells may be then placed on ice and immediately washed three times with ice-cold KPB. Cells may be inspected for monolayer detachment and lysed in 0.1 N NaOH with scraping. […] Three or more independent experiments of 18 hours treatment duration may be performed for each test compound, with three or more replicates per condition per experiment. Vehicle-control and 2,4-dinitrophenol conditions may be included on every plate for the purpose of standardizing.

[5] = Suppl. Table 1, 100 μM, 2-3 mitochondrial preparations
[6] = test conc. 25 μM, increase in basal (state 4) oxygen consumption as % of average ADP-stimulated (state 3) rate in vehicle-treated mitochondria
[7] = test conc. 100 μM, increase in basal (state 4) oxygen consumption as % of average ADP-stimulated (state 3) rate in vehicle-treated mitochondria
[8] = test conc. 25 μM, functional capacity (state 3 minus state 4 rate) as % of vehicle-treated mitochondria
[9] = test conc. 100 μM, functional capacity (state 3 minus state 4 rate) as % of vehicle-treated mitochondria

Row | Compound | Measured Uncoupling Activity (% uncoupling ± SEM @ 100 μM) [2, 5] [% uncoupling] | Uncoupling (%) [2, 6] [%] | Uncoupling (%) [2, 7] [%] | Inhibitory effect (%) ([3]; test conc. 25 μM) | Residual capacity (%) [3, 8] [%] | Inhibitory effect (%) ([3]; test conc. 100 μM) | Residual capacity (%) [3, 9] [%] | also measured
1 | C[C@@H]1C[C@H]2[C@@H]3CCC4=CC(=O)C=C[C@]4(C)[C@@]3(F)[C@@H](O)C[C@]2(C)[C@@]1(O)C(=O)CO [dexamethasone] | – | – | – | – | – | – | – | increase in G6Pase activity [1]: 56%; increase in G6Pase activity ([1]; listed as Dexamethasone): 56±10%
2 | O=c1c(O)c(-c2cc(O)c(O)c(O)c2)oc2cc(O)cc(O)c12 [myricetin] | 11 ± 0 | 6 ± 3 | 11 ± 0 | 28 | 66 ± 2 | 43 | 46 ± 3 | –
3 | [H]/N=C(/N)N/C(=N/[H])NCCc1ccccc1 [phenformin] | – | – | – | – | – | – | – | increase in basal glucose uptake [4]: 48%
4 | Oc1ccccc1 [phenol] | – | – | – | – | – | – | – | Measured Uncoupling Activity (% uncoupling ± SEM @ 100 μM) [2]: 0 ± 0 % uncoupling; Uncoupling (%) [2]: 0 ± 0%; Inhibitory effect (%) [3]: 4%; Residual capacity (%) [3]: 96 ± 4%
5 | O=C(CCc1ccc(O)cc1)c1c(O)cc(O)cc1O [phloretin] | 15 ± 3 | 3 ± 1 | 15 ± 3 | 0 | 99 ± 12 | 44 | 41 ± 17 | –
6 | Oc1cc(O)cc(/C=C/c2ccc(O)c(O)c2)c1 [piceatannol (trans)] | – | 1 ± 1 | 5 ± 1 | 64 | 35 ± 7 | 89 | 6 ± 3 | –
7 | Oc1cccc(O)c1O [pyrogallol] | 1 ± 1 | – | 1 ± 1 | – | – | 16 | 83 ± 17 | –
8 | O=c1c(O)c(-c2ccc(O)c(O)c2)oc2cc(O)cc(O)c12 [quercetin] | 8 ± 1 | 4 ± 0 | 8 ± 1 | 36 | 60 ± 10 | 80 | 12 ± 5 | inhibition of ADP-stimulated oxygen consumption [3]: inhibitory activity
9 | Oc1cccc(O)c1 [resorcinol] | 0 ± 0 | – | 0 ± 0 | – | – | 9 | 91 ± 3 | –
10 | Oc1ccc(C=Cc2cc(O)cc(O)c2)cc1 [resveratrol (trans)] | – | 0 ± 0 | 2 ± 0 | 29 | 71 ± 9 | 62 | 36 ± 4 | –
11 | O=C(O)c1ccccc1O [salicylic acid] | 4 ± 0 | – | 4 ± 0 | – | – | 6 | 90 ± 2 | –
12 | COc1ccc(-c2cc(=O)c3c(O)cc(O)c(-c4cc(-c5cc(=O)c6c(O)cc(OC)cc6o5)ccc4OC)c3o2)cc1 [sciadopitysin] | −1 ± 0 | – | −1 ± 0 | – | – | 2 | 98 ± 0 | –
13 | COc1cc(C2Oc3cc([C@H]4Oc5cc(O)cc(O)c5C(=O)[C@@H]4O)ccc3OC2CO)ccc1O (stereo partly drawn) [silibinin (A and B), silibinin] | 5 ± 1 | – | 5 ± 1 | – | – | 73 | 22 ± 5 | inhibition of ADP-stimulated oxygen consumption [3]: inhibitory activity
14 | C(=Cc1ccccc1)c1ccccc1 [stilbene (trans)] | – | – | −1 ± 1 | – | – | 1 | 99 ± 3 | –
15 | Cc1ccc(C(C)C)c(O)c1 [thymol] | 6 ± 0 | – | 6 ± 0 | – | – | 29 | 65 ± 5 | –
16 | Oc1cc(O)cc(/C=C/c2ccccc2)c1 [trans-pinosylvin, pinosylvin] | 3 ± 3 | 0 ± 1 | 3 ± 3 | 20 | 80 ± 13 | 34 | 63 ± 4 | –
17 | COc1cc(C=O)ccc1O [vanillin] | 0 ± 1 | – | 0 ± 1 | – | – | 26 | 74 ± 16 | –
18 | epigallocatechin gallate [(−) epigallocatechin gallate] | 0 ± 1 | – | 0 ± 1 | – | – | 2 | 98 ± 2 | –
